For test [1], the target named is Eukaryotic translation initiation factor 4E (Mus musculus, UniProt P63073). Put plainly: eIF4E–eIF4G protein interaction inhibitors, dose response, biochemical, TR-FRET (AID 855).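 Also: potency for disrupting eIF4E binding to eIF4GI seen as loss of FRET.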 Type of test: functional. In general terms: In TR-FRET formats the signal depends on donor and acceptor labels being close together.
The target of test [2] is T1, Long-chain-fatty-acid--AMP ligase FadD28 (Mycobacterium tuberculosis, UniProt P9WQ59).
T1 sequence (P9WQ59 whole entry): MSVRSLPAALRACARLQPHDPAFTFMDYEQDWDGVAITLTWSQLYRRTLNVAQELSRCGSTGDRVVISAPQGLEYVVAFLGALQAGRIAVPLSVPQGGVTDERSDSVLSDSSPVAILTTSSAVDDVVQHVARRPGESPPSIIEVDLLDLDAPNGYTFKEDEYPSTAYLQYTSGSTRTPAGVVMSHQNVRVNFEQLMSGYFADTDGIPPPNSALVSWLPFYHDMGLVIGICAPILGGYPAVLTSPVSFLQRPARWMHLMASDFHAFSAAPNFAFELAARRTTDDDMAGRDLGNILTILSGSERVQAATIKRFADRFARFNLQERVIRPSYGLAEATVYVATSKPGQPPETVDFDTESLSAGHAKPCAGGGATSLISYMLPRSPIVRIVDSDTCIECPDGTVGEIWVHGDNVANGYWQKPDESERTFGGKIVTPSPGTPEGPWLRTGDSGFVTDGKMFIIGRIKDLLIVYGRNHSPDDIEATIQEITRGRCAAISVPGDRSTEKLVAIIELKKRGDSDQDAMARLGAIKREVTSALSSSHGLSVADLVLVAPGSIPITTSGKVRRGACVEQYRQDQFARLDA
The test is described as follows: Fluorescence polarization aasay to screen for inhibitors that compete for the binding of FadD28 to a bisubstrate Measured in Biochemical System Using Plate Reader - 2147-01_Inhibitor_Dose_CherryPick_Activity. Type of test: functional, Mycobacterium tuberculosis H37Rv. Background: In fluorescence polarisation assays a small probe gives low polarisation when free and higher when bound to something large.

The target of another test is Cytochrome P450 3A4 (Homo sapiens, UniProt P08684). Particulars: Potency.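 Also: confirmatory qHTS run detecting inhibitors and substrates of CYP3A4.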
Test [3] addresses T2, Corticotropin-releasing factor receptor 2/Corticotropin-releasing factor-binding protein (Homo sapiens, UniProt P24387+Q13324).
T2 sequence (Q13324 whole entry): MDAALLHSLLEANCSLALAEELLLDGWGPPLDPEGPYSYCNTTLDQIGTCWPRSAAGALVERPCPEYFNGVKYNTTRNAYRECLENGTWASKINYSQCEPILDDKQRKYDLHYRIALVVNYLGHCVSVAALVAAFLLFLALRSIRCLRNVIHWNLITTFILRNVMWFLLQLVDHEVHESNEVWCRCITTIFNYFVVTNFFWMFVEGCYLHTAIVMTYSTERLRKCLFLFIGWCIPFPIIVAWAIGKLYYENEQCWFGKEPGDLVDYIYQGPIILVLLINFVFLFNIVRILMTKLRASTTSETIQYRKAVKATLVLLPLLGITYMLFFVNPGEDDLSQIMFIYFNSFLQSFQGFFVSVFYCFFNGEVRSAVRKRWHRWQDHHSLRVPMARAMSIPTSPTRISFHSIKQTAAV
T2 sequence (P24387 whole entry): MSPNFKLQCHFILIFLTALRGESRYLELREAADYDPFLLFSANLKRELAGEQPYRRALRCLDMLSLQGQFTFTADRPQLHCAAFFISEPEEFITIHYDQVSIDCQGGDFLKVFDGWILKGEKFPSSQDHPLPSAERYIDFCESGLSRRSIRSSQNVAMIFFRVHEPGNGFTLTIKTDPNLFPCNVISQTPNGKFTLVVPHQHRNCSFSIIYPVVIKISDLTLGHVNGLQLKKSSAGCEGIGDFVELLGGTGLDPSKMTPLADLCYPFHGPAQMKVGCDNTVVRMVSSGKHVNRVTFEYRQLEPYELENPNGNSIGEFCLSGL
The test is described as follows: activators of CRF receptor 2 with binding protein – uHTS hits, confirmation (AID 602473). Particulars: read-out: EC50_Mean. Type of test: functional.

The target of test [4] is T3, Endoribonuclease toxin MazF (Escherichia coli K-12, UniProt P0AE70).
T3 sequence (P0AE70 whole entry): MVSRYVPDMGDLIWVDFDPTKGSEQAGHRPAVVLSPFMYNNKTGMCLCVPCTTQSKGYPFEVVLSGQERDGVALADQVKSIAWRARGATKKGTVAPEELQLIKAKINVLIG
The test is described as follows: MazF toxin RNase activators, dose response, biochemical, fluorescence, single-stranded RNA substrate, uHTS hits (AID 588481). The class given is functional.

In test [5] the target is T3, Endoribonuclease toxin MazF. Put plainly: fluorescent RNA oligo signal without MazF, dose response, counter-screen for MazEF activator project, biochemical, fluorescence, single-stranded RNase substrate (AID 588502). Type of test: functional.
Test [6] in a line: Luminescence Cell-Based Dose Retest to Confirm Inhibitors of Cancer Stem Cells. [Related pubchem assays (depositor defined):AID2717, AID2721]. Type of test: functional. Particulars: Homo sapiens.
The test system of the next test is Streptococcus. Put plainly: Group A Streptococcus viability loss, dose response, counter-screen for streptokinase expression inhibitor project, luminescence, BacTiterGlo (AID 1915).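 Also: potency for reduction of bacterial viability or growth.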 The class given is functional, organism-based. (In general: Counterscreens check selectivity or assay interference.)
The target of the next test is T4, Streptokinase A (Streptococcus pyogenes serotype M1, UniProt P10520).
T4 sequence (P10520 whole entry): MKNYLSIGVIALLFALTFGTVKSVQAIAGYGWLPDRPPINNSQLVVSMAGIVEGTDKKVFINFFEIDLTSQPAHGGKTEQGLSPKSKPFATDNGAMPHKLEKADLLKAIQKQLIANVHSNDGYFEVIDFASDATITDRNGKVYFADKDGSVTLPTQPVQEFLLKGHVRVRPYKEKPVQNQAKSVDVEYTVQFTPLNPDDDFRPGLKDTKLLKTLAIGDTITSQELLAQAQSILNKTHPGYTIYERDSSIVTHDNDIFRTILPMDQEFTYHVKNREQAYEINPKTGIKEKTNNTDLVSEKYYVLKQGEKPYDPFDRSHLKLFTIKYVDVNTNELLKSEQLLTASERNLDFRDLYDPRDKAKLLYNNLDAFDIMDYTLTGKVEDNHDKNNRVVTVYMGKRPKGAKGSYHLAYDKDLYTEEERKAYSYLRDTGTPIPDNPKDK
Put plainly: S. pyogenes streptokinase expression inhibitors, potency, dose response, plasminogen activation absorbance, OD405 (AID 1914).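 Also: secreted streptokinase activity via plasminogen activation per viability signal from cell pellet.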 The class given is functional, Streptococcus pyogenes M1 GAS.

Another test deals with Genome polyprotein (dengue virus type 2, UniProt P29990). The test is described as follows: Dengue-2 NS5 methyltransferase inhibitors, primary screen, biochemical, confirmation dose response (AID 588689). Type of test: functional.
Test [7] has as its system Streptococcus sp. 'group A'. The test is described as follows: growth inhibition of control SK(-) GAS strain, dose response, counter-screen for streptokinase expression inhibitor project, luminescence, kanamycin, BacTiterGlo, confirmation (AID 1900). The class given is functional, organism-based.
The target of test [8] is T5, Calpain-2 catalytic subunit (Sus scrofa, UniProt P43367).
T5 sequence (P43367 whole entry): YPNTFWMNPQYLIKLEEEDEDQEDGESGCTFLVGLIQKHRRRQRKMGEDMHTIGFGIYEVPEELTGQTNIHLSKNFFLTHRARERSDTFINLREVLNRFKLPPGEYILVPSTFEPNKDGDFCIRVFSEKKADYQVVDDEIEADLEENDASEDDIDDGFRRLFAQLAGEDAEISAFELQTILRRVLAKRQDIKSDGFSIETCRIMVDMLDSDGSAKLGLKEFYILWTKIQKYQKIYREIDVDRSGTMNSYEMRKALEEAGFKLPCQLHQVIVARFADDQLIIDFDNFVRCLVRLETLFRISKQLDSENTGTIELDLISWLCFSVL
Put plainly: pig calpain II inhibitor potency, dose response, biochemical, fluorogenic peptide substrate (AID 1420). The class given is functional.

The nature of test [9]: HEp-2 cell cytotoxicity, dose response, cytotoxicity control for RSV inhibitor project, HTS (AID 2410). Type of test: functional. Particulars: human respiratory syncytial virus.
Test [10] concerns the target FAD-linked sulfhydryl oxidase ALR (Homo sapiens, UniProt P55789). The test is described as follows: inhibitors of human ALR sulfhydryl oxidase, dose response, biochemical, H2O2 detection, luminescence, cherry-pick (AID 493248).
Test [11] is described as follows: microbe, parasite or virus in culture. Particulars: Mycobacterium tuberculosis. Type of test: functional.
A further test has as its target Cytochrome P450 2C9 (Homo sapiens, UniProt P11712).

Active and inactive are the calls of the source. Bounds are passed on as bounds.

Cytochrome P450 3A4, sequence (P08684 whole entry): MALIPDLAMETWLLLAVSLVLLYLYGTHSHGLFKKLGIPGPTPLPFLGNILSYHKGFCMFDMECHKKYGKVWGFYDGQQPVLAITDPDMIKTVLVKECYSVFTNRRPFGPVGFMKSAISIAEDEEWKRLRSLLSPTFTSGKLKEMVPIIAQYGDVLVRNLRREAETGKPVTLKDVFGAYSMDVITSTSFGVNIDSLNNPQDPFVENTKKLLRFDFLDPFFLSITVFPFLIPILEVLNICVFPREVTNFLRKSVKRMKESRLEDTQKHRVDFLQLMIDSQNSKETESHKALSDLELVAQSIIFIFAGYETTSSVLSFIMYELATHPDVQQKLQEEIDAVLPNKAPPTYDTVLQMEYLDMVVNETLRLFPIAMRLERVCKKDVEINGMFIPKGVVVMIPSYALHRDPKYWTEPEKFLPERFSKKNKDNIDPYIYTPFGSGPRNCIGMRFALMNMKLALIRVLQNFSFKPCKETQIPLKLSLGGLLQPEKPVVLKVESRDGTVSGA
Eukaryotic translation initiation factor 4E, sequence (P63073 whole entry): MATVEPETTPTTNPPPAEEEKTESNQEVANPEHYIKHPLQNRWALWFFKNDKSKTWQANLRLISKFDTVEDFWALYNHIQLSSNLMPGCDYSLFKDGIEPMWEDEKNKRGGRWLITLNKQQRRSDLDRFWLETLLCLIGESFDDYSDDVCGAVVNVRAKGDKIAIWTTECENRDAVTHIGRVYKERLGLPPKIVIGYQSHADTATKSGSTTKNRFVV
Cytochrome P450 2C9, sequence (P11712 whole entry): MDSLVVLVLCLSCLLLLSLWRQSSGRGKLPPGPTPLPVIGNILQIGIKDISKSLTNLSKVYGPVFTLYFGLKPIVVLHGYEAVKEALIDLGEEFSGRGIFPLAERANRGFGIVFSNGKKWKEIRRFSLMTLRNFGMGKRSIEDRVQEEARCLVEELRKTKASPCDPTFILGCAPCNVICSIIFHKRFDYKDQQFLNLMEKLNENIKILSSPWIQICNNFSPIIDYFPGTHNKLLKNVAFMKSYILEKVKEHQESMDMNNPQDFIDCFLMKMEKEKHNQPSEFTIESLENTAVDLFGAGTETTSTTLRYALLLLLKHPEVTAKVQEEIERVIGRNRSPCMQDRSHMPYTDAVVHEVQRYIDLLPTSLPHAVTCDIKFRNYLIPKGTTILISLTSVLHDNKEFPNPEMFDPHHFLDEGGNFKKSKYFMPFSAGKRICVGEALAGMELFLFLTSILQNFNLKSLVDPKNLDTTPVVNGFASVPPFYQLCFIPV
FAD-linked sulfhydryl oxidase ALR, sequence (P55789 whole entry): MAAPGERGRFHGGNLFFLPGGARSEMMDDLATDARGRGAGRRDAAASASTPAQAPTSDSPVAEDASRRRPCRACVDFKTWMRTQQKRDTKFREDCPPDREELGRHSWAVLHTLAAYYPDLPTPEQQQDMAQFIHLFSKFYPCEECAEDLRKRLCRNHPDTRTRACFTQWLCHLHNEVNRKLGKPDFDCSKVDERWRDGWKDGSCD
Genome polyprotein, sequence (P29990 2492-3391 limits assumed): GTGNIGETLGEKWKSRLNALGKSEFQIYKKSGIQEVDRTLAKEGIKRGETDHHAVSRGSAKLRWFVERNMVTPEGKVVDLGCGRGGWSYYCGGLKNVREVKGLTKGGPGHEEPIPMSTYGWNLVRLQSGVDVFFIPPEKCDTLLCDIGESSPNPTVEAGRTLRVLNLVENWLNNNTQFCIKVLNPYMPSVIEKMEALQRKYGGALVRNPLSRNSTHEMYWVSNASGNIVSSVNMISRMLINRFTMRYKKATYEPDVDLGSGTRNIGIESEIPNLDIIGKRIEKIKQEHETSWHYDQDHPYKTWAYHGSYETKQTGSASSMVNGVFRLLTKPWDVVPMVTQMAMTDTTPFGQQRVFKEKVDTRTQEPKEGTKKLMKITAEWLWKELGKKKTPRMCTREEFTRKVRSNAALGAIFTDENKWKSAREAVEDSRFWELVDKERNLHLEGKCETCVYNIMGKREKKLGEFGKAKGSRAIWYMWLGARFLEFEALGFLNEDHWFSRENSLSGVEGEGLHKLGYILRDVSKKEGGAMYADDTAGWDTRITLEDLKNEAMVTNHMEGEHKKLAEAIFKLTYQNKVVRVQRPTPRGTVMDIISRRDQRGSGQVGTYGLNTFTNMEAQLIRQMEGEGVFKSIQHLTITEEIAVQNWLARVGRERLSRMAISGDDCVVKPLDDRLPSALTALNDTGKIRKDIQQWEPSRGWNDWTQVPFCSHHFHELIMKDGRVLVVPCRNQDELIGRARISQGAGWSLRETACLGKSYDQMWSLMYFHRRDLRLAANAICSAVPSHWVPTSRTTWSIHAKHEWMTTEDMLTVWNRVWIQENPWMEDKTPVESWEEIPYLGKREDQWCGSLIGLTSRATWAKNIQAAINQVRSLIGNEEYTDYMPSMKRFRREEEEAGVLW

The term IC50 denotes the point on the concentration scale where inhibition reaches its midpoint. In the case of `O=C(CNC(=O)c1ccco1)N=Nc1c(O)[nH]c2ccc([N+](=O)[O-])cc12`, in the test “cells”, the IC50 is 20.6 µM (active).

Turning to `CCc1ccc(C(=O)NNC(=O)OC)cc1`, the IC50 in [1] was 50 µM (inactive).

One may read the AC50 as the midpoint of the concentration-response curve, whichever way the signal moves. As to `COc1cc(/C=C2\SC(=S)N(CC(=O)Nc3cccnc3)C2=O)cc(OC)c1OC`, in test [2], the AC50 is 72.2 µM (active).

Consider `O=C1c2cccnc2C(Nc2ccccc2)N1Cc1ccco1` (stereo unspecified), for which the IC50 in “cells” was 15.1 µM (active).

For the compound `NS(=O)(=O)c1ccc(NC(=O)COc2ccc(C(=O)c3ccc(F)cc3)cc2)cc1`, in [2], the AC50 is > 100 µM (inactive).

Regarding `COC(=O)C1(C)C=CC2(CCCCC2)N1C(=O)c1ccccc1` (stereo unspecified), the AC50 on Cytochrome P450 3A4 was 20 µM (inconclusive).

Take `CCOc1ccc(N2C(=O)NC(=O)/C(=C\c3c[nH]c4ccccc34)C2=O)cc1`: the values for the EC50 in test [3], in test [4] and in [5] were 15.4 µM (active), > 99 µM (inactive) and 16.3 µM (active), respectively.

Turning to `Cc1ccc(S(=O)(=O)NCC(=O)Nc2ccc3c(c2)OCCO3)cc1`, the AC50 in test [2] is > 100 µM (inactive).

`Cc1ccc(F)c(NC(=O)/C(C#N)=C(\O)c2ccc(C(C)(C)C)cc2)c1`: the AC50 is 1.96 µM (active) in [6] and > 100 µM (inactive) in [2]. For the same compound, the results for the EC50 (in the test with Streptococcus; at Streptokinase A; in test [7]) were > 150 µM (not active), > 150 µM (not active) and 16.7 µM (active), respectively. The IC50 at Genome polyprotein is 32.6 µM (active).

On to `Cc1ccccc1NC(=O)COC(=O)CCc1ccccc1`, for which the IC50 in test [8] was 20.8 µM (not active).

Consider `O=S(=O)(c1ccccc1Cl)N1CCCC(c2nc(O)c3nnn(Cc4ccc5c(c4)OCCO5)c3n2)C1` (stereo unspecified), for which the IC50 in the test “cells” was 10.1 µM (active). The CC50 in [9] was 16.6 µM (active).

As for `CC1=C(C(=O)OCC(C)C)C23C(=O)c4ccccc4C2(O1)OC(N)=C3C#N` (stereo unspecified), the IC50 in test [8] was > 50 µM (not active).

Regarding `COc1cc(NC2c3ncccc3C(=O)N2Cc2ccco2)cc(OC)c1OC` (stereo unspecified), the IC50 in “cells” was 30.1 µM (active).

As for `CN1c2ccccc2C(C)(C)C12CC(c1cccc(S(=O)(=O)N3CCCC3)c1)=NO2` (stereo unspecified), the IC50 in the test “cells” is 18.3 µM (active). For the same compound, the CC50 in [9] is 17.7 µM (active).

With `CC(C)CNS(=O)(=O)c1ccc(CCC(=O)Nc2cc(Cl)ccc2Oc2ccccc2)cc1`, in test [8], the IC50 is reported as 5.08 µM (not active).

As to `Cc1nn(Cc2cccc(C(=O)NC(C)c3ccc(C(C)(C)C)cc3)c2)c(C)c1[N+](=O)[O-]` (stereo unspecified), in [8], the IC50 is listed as 6.98 µM (not active).

In the case of `COc1ccc(-c2csc(Nc3ccc(S(=O)(=O)Nc4cc(C)on4)cc3)n2)cc1`, the figures for the AC50 in test [10] and in test [2] were 12.9 µM (active) and 67.4 µM (active), respectively.

Turning to `CC(=O)Nc1ccc(S(=O)(=O)Nc2cccc3[nH]ncc23)cc1`, in [8], the IC50 is reported as > 50 µM (not active).

Turning to `CN1C(=O)/C(=C/c2ccccc2Cl)Sc2ccc(C(=O)NCc3cccnc3)cc21`, the CC50 in [11] is > 40 µM (active). In addition, the EC50 is 16.1 µM (active) with Streptococcus, > 150 µM (not active) on Streptokinase A and 4.4 µM (active) in test [7]. In addition, the IC50 in [8] is given as 5.27 µM (not active).

As for `COC1(C#CC2C=CC(OC(C)=O)C(COC(C)=O)O2)CCCCC1` (stereo unspecified), the AC50 on Cytochrome P450 3A4 is 3.98 µM (inconclusive).

For the compound `Cc1cccc(-n2c(=O)c3c4c(sc3n3c(=S)[nH]nc23)CCC4)c1`, the IC50 in test [1] is 50 µM (inactive).

On to `COc1cccc(NC(=O)COc2ccc(N3CC(C(=O)NCC(C)C)CC3=O)cc2)c1` (stereo unspecified), for which the IC50 in test [1] was > 64 µM (inactive).

As for `C/C(N)=C(/C#N)C(=O)COC(=O)CNS(=O)(=O)c1ccc2ccccc2c1`, the IC50 in “cells” was 11.8 µM (active).

In the case of `CN(CCOc1ccc(C[C@H](Nc2ccccc2C(=O)c2ccccc2)C(=O)O)cc1)c1ccccn1`, the AC50 at Cytochrome P450 3A4 is 3.16 µM (inconclusive); on Cytochrome P450 2C9, 31.6 µM (inconclusive).

As for `COc1cc(O)c2c(=O)c(O)c(-c3ccc(O)c(O)c3)oc2c1` [RHAMNETIN], on Cytochrome P450 3A4, the AC50 was 39.8 µM (inconclusive).

On to `C=CCc1ccc2c(c1)OCO2` [SAFROLE], for which the AC50 at Cytochrome P450 3A4 was 3.16 µM (inconclusive).

(Values after ChEMBL document CHEMBL1201862, “PubChem BioAssay data set” (2004).)
